# ChEMBL document CHEMBL1142641, “New isomalabaricane derivatives from a new species of Jaspis sponge collected at the Vanuatu islands” (J Nat Prod, 2000)
# Test: Cytotoxicity against mouse […] cells
# Assay type: functional, cell-based
row,Structure (SMILES),IC50
1,COC(=O)[C@]1(C)[C@@H]2CC[C@]3(C)/C(=C(/C)C=O)C(=O)C[C@@H]3[C@@]2(C)CC[C@H]1OC(C)=O,> 3.3 µg/mL
2,COC(=O)[C@]1(C)[C@@H]2CC[C@]3(C)\C(=C(C)/C=C/C=C(C)/C=C/C=O)C(=O)C[C@@H]3[C@@]2(C)CC[C@H]1OC(C)=O,> 3.3 µg/mL
3,COC(=O)[C@]1(C)[C@@H]2CC[C@]3(C)\C(=C(C)/C=C/C=C(\C)C=O)C(=O)C[C@@H]3[C@@]2(C)CC[C@H]1OC(C)=O,> 3.3 µg/mL
4,COC(=O)[C@]1(C)[C@@H]2CC[C@]3(C)\C(=C(C)/C=C/C=C(\C)C(/C=C/C(C)(C)O)OC)C(=O)C[C@@H]3[C@@]2(C)CC[C@H]1OC(C)=O (some centres not stated) [GLOBOSTELLATIC ACD B METHYL ESTER],> 3.3 µg/mL
5,COC(=O)[C@]1(C)[C@@H]2CC[C@]3(C)\C(=C(C)/C=C/C=C(C)/C=C/C(OC)C(C)(C)O)C(=O)C[C@@H]3[C@@]2(C)CC[C@H]1OC(C)=O (some centres not stated) [GLOBOSTELLATIC ACD C METHYL ESTER],> 3.3 µg/mL
6,COC(=O)/C(C)=C1\C(=O)C[C@@H]2[C@@]3(C)CC[C@@H](OC(C)=O)[C@](C)(C(=O)OC)[C@@H]3CC[C@]12C [JASPIFEROIC ACID A DIMETHYL ESTER],> 3.3 µg/mL
7,COC(=O)/C=C/C(C)=C1/C(=O)C[C@@H]2[C@@]3(C)CC[C@@H](OC(C)=O)[C@](C)(C(=O)OC)[C@@H]3CC[C@]12C [JASPIFEROIC ACID B DIMETHYL ESTER],> 3.3 µg/mL
